# Assay results taken from publication PMC8201735 (BMC Pharmacology & Toxicology, 2021).
# “And” between values parts separate entries of the source, which are not always exact repeats. Identical values can stand only once.
# Test system: subjects with T2DM
# Experiment: Oral glucose tolerance test (75 g): weighted mean plasma glucose and insulin
# Assay type: in vivo, human
# Protocol: Oral glucose tolerance testing was performed on Day 1 and Day 13 using a 75 g oral glucose solution. Blood samples for the measurement of insulin and glucose were taken immediately before drug dosing (within 5 min of drug dosing), and at 30 min, 1, 1.5, 2, 3, 4, and 6 h following drug dosing.
smiles,measurement,setting,value
"CCOC(=O)OC[C@H]1O[C@@H](Oc2nn(C(C)C)c(C)c2Cc2ccc(OC(C)C)cc2)[C@H](O)[C@@H](O)[C@@H]1O [RE, remogliflozin etabonate]","Weighted mean plasma glucose following OGTT, Mean (SD)","Day 1 (baseline), RE 500 mg + Metformin",13 mmol/L and 13.03 (1.929) mmol/L
same,"Weighted mean plasma glucose following OGTT, Mean (SD)","Day 1 (baseline), RE 750 mg + Metformin",11 mmol/L and 11.49 (3.536) mmol/L
same,"Weighted mean plasma glucose following OGTT, Mean (SD)","Day 13, RE 500 mg + Metformin",9 mmol/L and 9.45 (1.502) mmol/L
same,"Weighted mean plasma insulin following OGTT, Mean (SD)","Day 13, RE 500 mg + Metformin",142.15 (67.626) pmol/L
same,"Weighted mean plasma glucose following OGTT, Mean (SD)","Day 13, RE 750 mg + Metformin",8 mmol/L and 8.84 (1.656) mmol/L
same,"Weighted mean plasma insulin following OGTT, Mean (SD)","Day 13, RE 750 mg + Metformin",171.57 (74.178) pmol/L
same,"Weighted mean plasma glucose, change from baseline, Mean (SD)",RE 500 mg + Metformin,−3.50 (2.012) mmol/L
same,"Weighted mean plasma insulin, change from baseline, Mean (SD)",RE 500 mg + Metformin,−44.80 (52.746) pmol/L
same,"Weighted mean plasma glucose, change from baseline, Mean (SD)",RE 750 mg + Metformin,−2.77 (2.262) mmol/L
same,"Weighted mean plasma insulin, change from baseline, Mean (SD)",RE 750 mg + Metformin,−18.95 (47.360) pmol/L
